Experimental data published in ChEMBL document CHEMBL4052809, “Development of a highly reliable assay for ubiquitin-specific protease 2 inhibitors” (Bioorg Med Chem Lett, 2017).
Calls of active or inactive are those of the source. The calls are words filed in the database; no cut-off is given here.

Experiments:
[1] = biological target: T1, Ubiquitin carboxyl-terminal hydrolase 2 (Homo sapiens) (UniProt O75604); test: Inhibition of recombinant human N-terminal His-tagged USP2 catalytic domain (258 to 605 residues) expressed in Escherichia coli BL21(DE3) at 100 uM using human N-terminal GST-tagged UBA52 as substrate pretreated for 10 mins followed by substrate addition after 60 mins by coomassie staining based assay
T1 sequence (whole entry): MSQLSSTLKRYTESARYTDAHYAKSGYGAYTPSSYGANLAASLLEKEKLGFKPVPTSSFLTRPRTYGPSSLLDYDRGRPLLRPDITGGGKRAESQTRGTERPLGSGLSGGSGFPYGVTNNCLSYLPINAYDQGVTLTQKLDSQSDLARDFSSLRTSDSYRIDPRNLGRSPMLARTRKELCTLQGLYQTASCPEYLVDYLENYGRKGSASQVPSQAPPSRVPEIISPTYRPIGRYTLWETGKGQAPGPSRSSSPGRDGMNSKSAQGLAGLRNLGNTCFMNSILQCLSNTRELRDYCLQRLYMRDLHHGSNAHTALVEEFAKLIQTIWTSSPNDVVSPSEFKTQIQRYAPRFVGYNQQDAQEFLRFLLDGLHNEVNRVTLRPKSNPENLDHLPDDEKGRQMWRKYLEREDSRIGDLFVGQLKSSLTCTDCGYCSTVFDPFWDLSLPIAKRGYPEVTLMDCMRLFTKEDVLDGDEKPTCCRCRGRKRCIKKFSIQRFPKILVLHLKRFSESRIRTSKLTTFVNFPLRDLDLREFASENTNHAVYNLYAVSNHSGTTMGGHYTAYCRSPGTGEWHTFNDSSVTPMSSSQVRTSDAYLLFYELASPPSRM

[2] = biological target: T2, Ubiquitin carboxyl-terminal hydrolase 2 (Homo sapiens, UniProt O75604); test: Inhibition of recombinant human N-terminal His-tagged USP2 catalytic domain (258 to 605 residues) expressed in Escherichia coli BL21(DE3) using human N-terminal GST-tagged UBA52 as substrate pretreated for 10 mins followed by substrate addition after 60 mins by coomassie staining based assay
T2 sequence (O75604 whole entry): T1 sequence (whole entry)

With `CC(=O)Nc1cccc(CNC(=O)c2sc3ccccc3c2OCc2ccccc2)c1` the inhibition [1] was “Active” and the IC50 [2] was 66.1 to 74.3 µM.
